From PMC10762035, “Molecular basis of human trace amine-associated receptor 1 activation” (Nature Communications, 2024)
Numbering of substitutions follows the chain as printed. Where “and” joins values, the source holds several entries; their conditions need not be identical. Equal values may be shown once.

Assays:
Format in all cases: cell-based
hTA1 C96S = target: T1, hTA1 C96S (Homo sapiens, UniProt Q96RJ0, C96S); assay: GloSensor cAMP accumulation assay, C96S mutant; settings: log[Compound]
T1 construct: expressed in transfected cells; host or cells: HEK293T
T1 sequence (Q96RJ0 1-339 C96S): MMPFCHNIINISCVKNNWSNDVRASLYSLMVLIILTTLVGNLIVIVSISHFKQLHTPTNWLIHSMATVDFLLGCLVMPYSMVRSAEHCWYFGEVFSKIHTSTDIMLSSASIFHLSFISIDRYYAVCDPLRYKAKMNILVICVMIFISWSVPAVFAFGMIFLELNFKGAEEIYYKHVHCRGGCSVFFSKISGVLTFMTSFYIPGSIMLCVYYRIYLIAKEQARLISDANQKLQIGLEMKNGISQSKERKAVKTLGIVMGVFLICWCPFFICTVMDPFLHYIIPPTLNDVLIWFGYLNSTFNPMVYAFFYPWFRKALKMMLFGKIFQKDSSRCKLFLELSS

hTA1 C88/178S = target: T2, hTA1 C88/178S (Homo sapiens, UniProt Q96RJ0, C178S/C88S); assay: GloSensor cAMP accumulation assay, C88S/C178S double mutant; settings: for Normalized Luminescence Counts (N=2): log[Compound], single replicate values
T2 construct: expressed in transfected cells; host or cells: HEK293T
T2 sequence (Q96RJ0 1-339 C88S/C178S): T1 sequence (Q96RJ0 1-339 C96S) with C88S, S96C, C178S

hTA1 I290N = target: T3, hTA1 I290N (Homo sapiens, UniProt Q96RJ0, I290N); assay: GloSensor cAMP accumulation assay, I290N mutant;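 further: cells transiently co-expressing hTA1 and the GloSensor cAMP biosensor, luminescence read 30 min after compound addition at room temperature, efficacy scaled to the maximal β-PEA response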
T3 construct: expressed in transfected cells; host or cells: HEK293T
T3 sequence (Q96RJ0 1-339 I290N): T1 sequence (Q96RJ0 1-339 C96S) with S96C, I290N

hTA1 F195T = target: T4, hTA1 F195T (Homo sapiens, UniProt Q96RJ0, F195T); assay: GloSensor cAMP accumulation assay, F195T mutant;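 further: cells transiently co-expressing HA-FLAG-tagged hTA1 and the GloSensor cAMP biosensor, luminescence read 30 min after agonist addition at room temperature, concentration-response fitted by nonlinear regression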
T4 construct: expressed in transfected cells; host or cells: HEK293T
T4 sequence (Q96RJ0 1-339 F195T): T1 sequence (Q96RJ0 1-339 C96S) with S96C, F195T

hTA1 T271A = target: T5, hTA1 T271A (Homo sapiens, UniProt Q96RJ0, T271A); assay: GloSensor cAMP accumulation assay, T271A mutant
T5 construct: expressed in transfected cells; host or cells: HEK293T
T5 sequence (Q96RJ0 1-339 T271A): T1 sequence (Q96RJ0 1-339 C96S) with S96C, T271A

[1] = C88S, C178S, each row is one independent experiment, 3 replicates

SMILES: NCCc1ccc(Oc2ccc(O)cc2)c(I)c1 [T1AM, 3-iodothyronamine]
- Normalized Luminescence Counts (hTA1 C96S; C96S, M = -5, single replicates (N=2)): -4.527 and 0.08646 and -0.5726 and 12.7948 and 5.048 and 3.112
- Normalized Luminescence Counts (hTA1 C96S; C96S, M = -5.522, single replicates (N=2)): -1.232 and -3.209 (2×) and 24.4145 and 1.175 and -2.698
- Normalized Luminescence Counts (hTA1 C96S; C96S, M = -6, single replicates (N=2)): -1.891 and -5.845 and -6.504 and 30.2243 and -2.698 and -0.7614
- Normalized Luminescence Counts (hTA1 C96S; C96S, M = -6.522, single replicates (N=2)): -5.186 (2×) and -5.845 and -10.4444 and -0.7614 and -2.698
- Normalized Luminescence Counts (hTA1 C96S; C96S, M = -7, single replicates (N=2)): -3.209 and -6.504 and -1.891 and -14.3176 and -8.508 and -10.4444
- Normalized Luminescence Counts (hTA1 C96S; C96S, M = -7.522, single replicates (N=2)): -1.891 and -5.186 (2×) and -4.6346 and 3.112 and -6.571
- Normalized Luminescence Counts (hTA1 C96S; C96S, M = -8, single replicates (N=2)): 0.08646 and -3.868 and -1.232 and 14.7315 and 18.6047 (2×)
- Normalized Luminescence Counts (hTA1 C96S; C96S, M = -8.522, single replicates (N=2)): -1.891 and -1.232 (2×) and 14.7315 (2×) and 8.922
- Normalized Luminescence Counts (hTA1 C96S; C96S, M = -9, single replicates (N=2)): -1.232 and -1.891 (2×) and 30.2243 and 37.9707 and 3.112
- Normalized Luminescence Counts (hTA1 C96S; C96S, M = -9.522, single replicates (N=2)): -3.209 and -1.891 and -1.232 and 16.6681 and 5.048 and 20.5413
- Normalized Luminescence Counts (hTA1 C96S; C96S, M = -10, single replicates (N=2)): 2.064 and -0.5726 and 0.7455 and -0.7614 and -4.6346 and -6.571
- Normalized Luminescence Counts (hTA1 C96S; C96S, M = -10.522, single replicates (N=2)): -1.891 and -3.868 and 0.08646 and 1.175 and -6.571 and -4.6346
- Normalized Luminescence Counts (hTA1 C96S; C96S, M = -11, single replicates (N=2)): 1.4045 and 0.7455 (2×) and 34.0975 (2×) and 14.7315
- Normalized Luminescence Counts (hTA1 C96S; C96S, M = -11.522, single replicates (N=2)): 1.4045 (2×) and -0.5726 and 24.4145
- Normalized Luminescence Counts (hTA1 C96S; M = -11.522, single replicates, mutant block above C178S): -0.4742 (2×) and -0.6563 and 0.6424 and -0.05214 and -0.3727
- Normalized Luminescence Counts (hTA1 C96S; M = -12, single replicates, mutant block above C178S): -0.08731 (2×) and -0.5653 and 0.1081 and 0.001279 (2×)
- Normalized Luminescence Counts (hTA1 C96S; M = -12.522, single replicates, mutant block above C178S): -0.2011 and 0.5045 and -0.6791 and -0.1056 and 0.9095 and -0.05214
- Span ± SEM (Emax normalized to β-PEA) (hTA1 C88/178S; C88/178S, n=2): 98.9 ± 13.16
- pEC50 ± SEM (hTA1 C88/178S; C88/178S, n=2): 5.96 ± 0.05
- EC50 (hTA1 C88/178S; C88/178S, n=2, read-out: EC50): 1090 nM
- pEC50 values, Mean (hTA1 C88/178S; [1]): 6.084 and 5.841
- ΔEmax values (each mutant value - WT average), Mean (hTA1 C88/178S; [1]): 15.2915 and 41.6133
- ΔpEC50 values (each mutant value - WT average), Mean (hTA1 C88/178S; [1]): -0.04547 and -0.2881
- Normalized Luminescence Counts (N=2) (hTA1 C88/178S; C88S, C178S, M = -5): 73.2176 and 97.3588 and 72.5957 and 103.925 and 90.4821 and 104.378
- Normalized Luminescence Counts (N=2) (hTA1 C88/178S; C88S, C178S, M = -5.522): 67.1681 and 64.6805 and 64.737 and 67.222 and 55.8941 and 86.253
- Normalized Luminescence Counts (N=2) (hTA1 C88/178S; C88S, C178S, M = -6): 53.4297 and 44.4403 and 51.5074 and 51.9671 and 38.3735 and 50.6077
- Normalized Luminescence Counts (N=2) (hTA1 C88/178S; C88S, C178S, M = -6.522): 23.5782 and 23.1825 and 20.8079 and 20.0978 and 14.6604 and 27.0456
- Normalized Luminescence Counts (N=2) (hTA1 C88/178S; C88S, C178S, M = -7): 11.3097 and 9.048 and 12.1012 and 6.655 and 6.504 and 10.7333
- Normalized Luminescence Counts (N=2) (hTA1 C88/178S; C88S, C178S, M = -7.522): 2.433 and 2.8292 and 3.225 and 0.6137 and -1.652 and -0.1415
- Normalized Luminescence Counts (N=2) (hTA1 C88/178S; C88S, C178S, M = -8): 0.6808 and 0.7373 and 1.19 and -0.1415 and -0.2925 and 0.9158
- Normalized Luminescence Counts (N=2) (hTA1 C88/178S; C88S, C178S, M = -8.522): 0.7373 and 0.7939 and 0.285 and -1.501 and 0.1606 and -0.4436
- Normalized Luminescence Counts (N=2) (hTA1 C88/178S; C88S, C178S, M = -9): 0.4547 (2×) and 1.981 and -1.199 and -2.558 and -1.652
- Normalized Luminescence Counts (N=2) (hTA1 C88/178S; C88S, C178S, M = -9.522): 0.285 (2×) and 0.2285 and -0.4436 and -2.105 and -1.199
- Normalized Luminescence Counts (N=2) (hTA1 C88/178S; C88S, C178S, M = -10): 1.19 and 0.0589 and 2.2073 and 0.4627 and 0.3116 and -0.1415
- Normalized Luminescence Counts (N=2) (hTA1 C88/178S; C88S, C178S, M = -10.522): 1.077 and 0.285 and 1.1331 and 0.1606 and -2.86 and -1.652
- Normalized Luminescence Counts (N=2) (hTA1 C88/178S; C88S, C178S, M = -11): 1.529 and 0.9635 and 0.2285 and -1.048 and -1.35 and -1.652
- Normalized Luminescence Counts (N=2) (hTA1 C88/178S; C88S, C178S, M = -11.522): 1.19 and 1.246 and 0.4547 and -0.5946 and -1.199 (2×)
- Normalized Luminescence Counts (N=2) (hTA1 C88/178S; C88S, C178S, M = -12): 0.3981 and 0.172 and 1.981 and -1.501 and -1.048 and -0.2925
- Normalized Luminescence Counts (N=2) (hTA1 C88/178S; C88S, C178S, M = -12.522): 1.1331 and 2.773 and 1.19 and -0.1415 and -1.35 and -0.8967
- Emax values, Mean (hTA1 C88/178S; C88S, C178S, normalized (β-PEA = 100), each row is one independent experiment, 3 replicates): 85.7378 and 112.06
- increase in potency vs wild type (hTA1 I290N; I290N): about 5 fold
- Span ± SEM (Emax normalized to β-PEA) (hTA1 I290N; I290N, n=2): 76.97 ± 5.53
- pEC50 ± SEM (hTA1 I290N; I290N, n=2): 6.86 ± 0.07
- EC50 (hTA1 I290N; I290N, n=2, read-out: EC50): 139 nM
- cAMP accumulation response, single replicate values (source data, Supplementary Figure 5) (hTA1 I290N; hTA1 I290N (N=2), log[Compound], M = -5): 86.8237 and 86.3523 and 77.8671 and 98.8421
- ΔpEC50 values (each mutant value - WT average), Mean (hTA1 I290N; hTA1 I290N mutant minus WT average): 0.6614 and 0.7922
- pEC50 values, Mean (hTA1 I290N; hTA1 I290N mutant, Figure 3B source data, each grid row a separate experiment, 3 replicates): 6.791 and 6.921
- Emax values, Mean (hTA1 I290N; hTA1 I290N mutant, β-PEA set to 100, each grid row a separate experiment, 3 replicates): 82.4992 and 71.4451
- ΔpEC50 values (each mutant value - WT average), Mean (hTA1 F195T; F195T mutant minus WT average, Figure 5B): -0.7125 and -0.7788
- pEC50 values, Mean (hTA1 F195T; F195T mutant, Figure 5B, each row one independent experiment (3 replicates)): 5.417 and 5.35
- Emax values, Mean (hTA1 F195T; F195T mutant, Figure 5B, β-PEA = 100, each row one independent experiment (3 replicates)): 72.2975 and 58.7221
- Span ± SEM (Emax normalized to β-PEA) (hTA1 F195T; F195T, n=2): 65.51 ± 6.79
- pEC50 ± SEM (hTA1 F195T; F195T, n=2): 6.67 ± 1.32
- EC50 (hTA1 F195T; F195T, n=2, read-out: EC50): 213 nM
- ΔpEC50 values (each mutant value - WT average), Mean (hTA1 T271A; T271A mutant minus WT average, Figure 5B): -0.6347 and -0.7159
- pEC50 values, Mean (hTA1 T271A; T271A mutant, Figure 5B, each row one independent experiment (3 replicates)): 5.495 and 5.413
- Emax values, Mean (hTA1 T271A; T271A mutant, Figure 5B, β-PEA = 100, each row one independent experiment (3 replicates)): 41.9229 and 94.6558
- Span ± SEM (Emax normalized to β-PEA) (hTA1 T271A; T271A, n=2): 68.29
- pEC50 ± SEM (hTA1 T271A; T271A, n=2): 5.45 ± 0.03
- EC50 (hTA1 T271A; T271A, n=2, read-out: EC50): 3520 nM
